# Results from article PMC6212786 (Nucleic Acids Research, 2018).
# Test system: T4 DNA ligase
# Assay: blunt-end DNA ligation assay, effect on T4 DNA ligase
# Type: biochemical, bacteriophage T4
# Conditions: pH 7.5
substance,measurement,value
"gp45: T4 sliding clamp, trimeric processivity factor for DNA polymerase",stimulation of blunt-end ligation activity of T4 DNA ligase,did not stimulate
